US12534510B2, “Peptide-receptive MHC-I complex compositions and methods” (priority 2020, dated 2026)

Tests used:
[1] = system: B4.2.3 TCR transgenic T cell line; assay: Tetramer staining by flow cytometry; type: cell-based, murine; parameters: dose or concentration left out as unconfirmed; details: stoichiometric (1:1) or catalytic (1:100) TAPBPR:MHC ratio
H-2D^d/TAPBPR complex = H-2D^d/TAPBPR complex (Mus musculus, UniProt P01900)
Description: Peptide occupancy of SEC purified MHC-I was determined by HPLC separation on a Higgins PROTO300 C4 column (5 μm, 100 mm×21 mm) followed by electrospray ionisation performed on a Thermo Finnigan LC/MS/MS (LQT) instrument. Peptides were identified by extracting expected m/z ions from the chromatogram and deconvoluting the resulting spectrum in MagTran.

H-2D^d = H-2D^d (Mus musculus, UniProt P01900); details: cited from earlier work
H-2L^d/TAPBPR complex = biological target: T1, H-2L^d/TAPBPR complex (Mus musculus, UniProt P01897); assay: SEC TAPBPR binding assay with LC-MS peptide occupancy; parameters: species or system murine; details: 10 mM Gly-Phe dipeptide (GF)
T1 construct: Plasmid DNA encoding the luminal domain of class I MHC (MHC-I) heavy chains H-2D^d, HLA-A*02:01, H-2L^d; made in house; Drosophila S2 for TAPBPR
Description: Complexes were resolved on an Superdex 200 10/300 increase column (GE healthcare) at a flow rate of 0.5 mL/min in 100 mM NaCl and 20 mM sodium phosphate pH 7.2 at room temperature. MHC-I/TAPBPR complexes eluted at 26.5 min.

[2] = biological target: HLA-A*24:02/TAPBPR complex (Homo sapiens, UniProt P04439, D101N/D140Y/D185E/E176V/E190D/F33S/G103R/G107R/I119L/I121M/I306V/K335N/L105A/L180Q/L300P/N151K/N90K/Q86E/Q94H/R106L/R138H/R89G/T104I/T345S/V100E/W191G/Y123F); assay: Native gel dissociation of MHC-I/TAPBPR complex by peptide; type: biochemical; details: HLA-A*24:02 refolded with gNEF, 10-fold molar excess peptide
[3] = nanoDSF melting temperatures; type: physicochemical
Description: In a volume of 20 μl, 1 μM peptide deficient HLA-A*02:01/TAPBPR was incubated with 20 μM of various peptides (FIG. 22) in a buffer of 20 mM sodium phosphate pH 7.2, 100 mM NaCl, 0.02% TWEEN-20 for at least one hour. 10 ul of each sample was loaded on the Prometheus NT.48 instrument (NanoTemper™) using the high sensitivity capillaries. NanoDSF™ measurements are performed using a temperature ramp rate of 1° C./min from 25° C. to 95° C. and an LED intensity of 20%. Data was analyzed using the PR Control software (NanoTemper™). Melting temperatures (Tm values) correspond to the inflection points of the first derivative of the 330/350 nm fluorescence ratio. Experiments were performed in duplicates and the shaded areas (FIG. 17b) are representative of the error.

[4] = biological target: HLA-A*68:02/TAPBPR complex (Homo sapiens, UniProt P04439, A269V/D140Y/D185E/E176V/E277Q/E87N/F33Y/G231S/I121R/I166T/I218V/L180W/L300P/L318F/N151K/P208A/P217A/Q86R/R138H/R169H/S129P/T345S/V36M); assay: Native gel dissociation of MHC-I/TAPBPR complex by peptide; type: biochemical; details: HLA-A*68:02 refolded with gTAX, 10-fold molar excess peptide

With AGPARAAAL (Sequence is synthesized) as the substance, how does the tetramer staining [1] read?
The tetramer staining was “No staining”.

What does the source list for GPGRAFVTI [gP18-I10]?
fate of bound peptide in the presence of TAPBPR (H-2D^d/TAPBPR complex): dissociated in the presence of TAPBPR; increase in the peptide off-rate relative to full-length P18-I10 peptide (H-2D^d): 100 fold

For PNVNIHNF, which “fate of bound peptide in the presence of TAPBPR” value (H-2L^d/TAPBPR complex) is on record?
Its value is “remained bound”.

For QLSPFPFDL [QL9], which “fate of bound peptide in the presence of TAPBPR” value (H-2L^d/TAPBPR complex) is on record?
Its value is “empty H-2L^d/TAPBPR complexes were obtained”.

With “QYNPIRTTF (Sequence is synthesized) [PHOX2B]” as the substance, how does the “effect of peptide on MHC-I/TAPBPR complex” value (“effect of peptide” for short) [2] read?
The value was “complex dissociation”.

Which “effect of peptide” value [2] does the source give for “RYPLTFGWCF (Sequence is synthesized) [Nef134-10]” here?
Its value is “complex dissociation”.

Which “Tm (nanoDSF inflection point)” value [3] does the source give for “TAPBPR: chaperone protein homologue of Tapasin, luminal domain expressed in Drosophila S2 cells” here?
Its value is 52.5 °C.

With “YPNVNIHNF (Sequence is synthesized) [p29, irrelevant, nonspecific peptide used as negative control]” as the substance, how does the “effect of peptide” value [2] read?
Its value is “remain bound”.

What about the “effect of peptide” value [4] of the same substance?
Its value is “remain bound”.
